Laboratory results from patent publication US7105679B2, “Heteroatom containing tetracyclic derivatives as selective estrogen receptor modulators” (priority 2001, dated 2006).
Like-named read-outs stand apart in the source and are kept apart here.

Tests used:
MCF-7 cells = assay: MCF-7 Cell Proliferation Assay (14C-thymidine, agonist and antagonist mode); assay type: cell-based; details: number in brackets = number of tests, NA = no detected activity at test concentration
Method: This assay was run according to the procedure described by Welshons, et al., (Breast Cancer Res. Treat., 1987, 10(2), 169-75), with minor modification.
Briefly, MCF-7 cells (from Dr. C. Jordan, Northwestern University) were maintained in RPMI 1640 phenol red free medium (Gibco) in 10% FBS (Hyclone), supplemented with bovine insulin and non-essential amino acid (Sigma). The cells were initially treated with 4-hydoxyltamoxifen (10^−8 M) and let stand at 37° C. for 24 hours. Following this incubation with tamoxifen, the cells were treated with compounds at various concentrations.
Compounds to be tested in the agonist mode were added to the culture media at varying concentrations. Compounds to be treated in the antagonist mode were prepared similarly, and 10 nM 17β-estradiol was also added to the culture media. The cells were incubated for 24 hours at 37° C. Following this incubation, 0.1 μCi of ^14C-thymidine (56 mCi/mmol, Amersham) was added to the culture media and the cells were incubated for an additional 24 hours at 37° C. The cells were then washed twice with Hank's buffered salt solution (HBSS) (Gibco) and counted with a scintillation counter. The increase in the ^14C-thymidine in the compound treated cells relative to the vehicle control cells were reported as percent increase in cell proliferation.

Ishikawa cells = assay: Alkaline Phosphatase Assay in Human Endometrial Ishikawa Cells (agonist and antagonist mode); assay type: cell-based; details: number in brackets = number of tests, NA = no detected activity at test concentration; for IC50: antagonist mode with 10 nM 17β-estradiol; for EC50: agonist mode
Method: This assay was run according to the procedure described by Albert et a., Cancer Res, […], 50(11), 330-6-10, with minor modification.
Ishikawa cells (from ATCC) were maintained in DMEM/F12 (1:1) phenol red free medium (Gibco) supplemented with 10% calf serum (Hyclone). 24 hours prior to testing, the medium was changed to DMEM/F12 (1:1) phenol red free containing 2% calf serum.
Compounds to be tested in the agonist mode were added to the culture media at varying concentrations. Compounds to be treated in the antagonist mode were prepared similarly, and 10 nM 17β-estradiol was also added to the culture media. The cells were then incubated at 37° C. for 3 days. On the fourth day, the media was remove, 1 volume of 1× Dilution Buffer (Clontech) was added to the well followed by addition of 1 volume of Assay Buffer (Clontech). The cells were then incubated at room temperature for 5 minutes. […] The cells were incubated at room temperature for 10 minutes and then quantified on a luminometer. The increase of chemiluminescence over vehicle control was used to calculate the increase in alkaline phosphatase activity.

[1] = target: T1, human estrogen receptor α (Homo sapiens, UniProt P03372); assay: Estrogen Receptor α Flash Plate Assay (binding of radiolabeled estrogen)
T1 construct: purchased Panvera
T1 sequence (P03372 1-595): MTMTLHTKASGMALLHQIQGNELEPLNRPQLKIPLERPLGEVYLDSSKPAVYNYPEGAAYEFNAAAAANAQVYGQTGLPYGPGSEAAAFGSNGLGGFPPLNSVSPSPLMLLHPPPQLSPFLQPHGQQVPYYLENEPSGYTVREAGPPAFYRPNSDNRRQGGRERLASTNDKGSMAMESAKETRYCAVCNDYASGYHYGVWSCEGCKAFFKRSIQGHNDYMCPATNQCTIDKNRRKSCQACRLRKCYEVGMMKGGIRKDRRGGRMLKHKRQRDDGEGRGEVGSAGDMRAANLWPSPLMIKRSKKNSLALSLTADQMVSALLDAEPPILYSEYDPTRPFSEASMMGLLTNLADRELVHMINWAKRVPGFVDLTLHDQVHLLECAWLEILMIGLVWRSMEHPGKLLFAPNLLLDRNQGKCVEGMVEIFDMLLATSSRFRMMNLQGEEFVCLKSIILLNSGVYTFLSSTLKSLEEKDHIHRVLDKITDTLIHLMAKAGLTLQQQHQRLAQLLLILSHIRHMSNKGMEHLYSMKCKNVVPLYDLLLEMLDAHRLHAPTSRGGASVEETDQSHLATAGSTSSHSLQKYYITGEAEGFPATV
Method: This assay monitors binding of radiolabeled estrogen to the estrogen receptor. It is performed on a BioMek 2000 (Beckman). Plates are read in a scintillation counter (Packard TopCount), with decreased counts an indication of binding of a compound to the receptor.
The plate was sealed and incubated at 4° C. overnight.
On day two, each well was washed three times with 200 μL PBS, pH 7.2, at room temperature. To each well was then added 98 μL radiolabeled estrogen (0.5 nM, which equals 6 nCi for a 120 Ci/mmol batch, Amersham), diluted in ESB and 5 mM dithiothreitol (DTT). To individual wells were then added 2.5 μL test compound diluted in 30% (v/v) dimethyl sulfoxide/50 mM HEPES, pH 7.5. The wells were mixed three times by aspiration, the plate sealed and incubated at room temperature for one hour. The wells were then counted for 1 min in a TopCount scintillation counter (Packard).

[2] = antagonist mode with 10 nM 17β-estradiol
[3] = flash plate binding, 0.5 nM radiolabeled estrogen, number in brackets = No. of determinations, NA = no detected activity at test concentration, read-out: Estrogen Receptor α in μM (No.)
[4] = Homo sapiens, MCF7, antagonist mode with 10 nM 17β-estradiol
[5] = Homo sapiens, MCF7, agonist mode

Compound	IC50 (MCF-7 cells; [2]) [µM]	IC50 (Ishikawa cells) [µM]	IC50 [1, 3] [µM]	also measured
OCCCOc1ccc(C2Oc3cc(O)ccc3C3=C2c2ccc(O)cc2OCC3)cc1 (racemic) [Compound 183]	≥ 10	3	0.014	
CC(C)(C)C(=O)Oc1ccc2c(c1)OC(c1ccc(OCCN3CCCCC3)cc1)C1=C2COc2cc(OC(=O)C(C)(C)C)ccc21 (single isomer, unassigned) [Compound 24]	0.672	0.066	5.95	EC50 (MCF-7 cells; agonist mode): > 10 µM; EC50 (Ishikawa cells): > 10 µM
CC(C)(C)C(=O)Oc1ccc2c(c1)OC(c1ccc(OCCN3CCCCC3)cc1)C1=C2COc2cc(OC(=O)C(C)(C)C)ccc21 (single isomer, unassigned) [Compound 25]	1.39	0.235	1.2	EC50 (MCF-7 cells; agonist mode): > 10 µM; EC50 (Ishikawa cells): > 10 µM
CC(C)(C)C(=O)Oc1ccc2c(c1)OC(c1ccc(OCCN3CCCCC3)cc1)C1=C2COc2cc(O)ccc21 (single isomer, unassigned) [Compound 89, 2,2-Dimethyl-propionic acid 8-hydroxy-11S*-(+)-[4-(2-piperidin-1-yl-ethoxy)-phenyl]-5,11-dihydro-chromeno[4,3-c]chromen-2-yl ester]	0.845	0.01	> 1	
CC(C)(C)C(=O)Oc1ccc2c(c1)OCC1=C2C(c2ccc(OCCN3CCCCC3)cc2)Oc2cc(O)ccc21 (single isomer, unassigned) [Compound 90, 2,2-Dimethyl-propionic acid 8-hydroxy-5S*(+)-[4-(2-piperidin-1-yl-ethoxy)-phenyl]-5,11-dihydro-chromeno[4,3-c]chromen-2-yl ester]	1.67	0.057	0.0066	
Oc1ccc2c(c1)OC(c1ccc(OCCN3CCCCC3)cc1)C1=C2CCOc2cc(O)ccc21 (single isomer, unassigned) [Compound 99, 5R*-(+)-[4-(2-Piperidin-1-yl-ethoxy)-phenyl]-11,12-dihydro-5H-6,13-dioxa-benzo[3,4]cyclohepta[1,2-a]naphthalene-2,8-diol]	0.182	0.13	0.0039	
Oc1ccc2c(c1)OC(c1ccc(OCCN3CCCCC3)cc1)C1=C2CCOc2cc(O)ccc21 (single isomer, unassigned) [Compound 100, 5S*-(−)-[4-(2-Piperidin-1-yl-ethoxy)-phenyl]-11,12-dihydro-5H-6,13-dioxa-benzo[3,4]cyclohepta[1,2-a]naphthalene-2,8-diol]				IC50 (MCF-7 cells; [4]): 0.075 µM; IC50 (Ishikawa cells; Homo sapiens): 0.019 µM; IC50 [1]: 0.0026 µM
Oc1ccc2c(c1)OC(c1ccc(OCCN3CCCCC3)cc1)C1=C2CCCOc2cc(O)ccc21 (single isomer, unassigned) [Compound 125]	4.7	1.62		
Oc1ccc2c(c1)OC(c1ccc(OCCN3CCCCC3)cc1)C1=C2CCOc2ccccc21 (single isomer, unassigned) [Compound 131]	> 10	4.94	0.061	
Oc1ccc2c(c1)OC(c1ccc(OCCN3CCCCC3)cc1)C1=C2CCOc2ccccc21 (single isomer, unassigned) [Compound 132]	1.28	0.548	0.0048	
CN(C)CCOc1ccc(C2Oc3cc(O)ccc3C3=C2c2ccc(O)cc2OCC3)cc1 (single isomer, unassigned) [Compound 163]	0.687	0.405		
CN(C)CCOc1ccc(C2Oc3cc(O)ccc3C3=C2c2ccc(O)cc2OCC3)cc1 (single isomer, unassigned) [Compound 164]	0.293	0.061		
Oc1ccc2c(c1)OC(c1ccc(OCCN3CCCCCC3)cc1)C1=C2CCOc2cc(O)ccc21 (single isomer, unassigned) [Compound 165]		0.128		
CC(C)(C)C(=O)Oc1ccc2c(c1)OC(c1ccc(OCCN3CCCCC3)cc1)C1=C2CCOc2cc(OC(=O)C(C)(C)C)ccc21 (single isomer, unassigned) [Compound 180]	0.655	0.0009		
CC(C)(C)C(=O)Oc1ccc2c(c1)OC(C)(c1ccc(OCCN3CCCC3)cc1)C1=C2COc2cc(OC(=O)C(C)(C)C)ccc21 (centres unmarked) [Compound 30, 2,2-Dimethyl-propionic acid, 8-(2,2-dimethyl-propionyloxy)-5-methyl-5-[4-(2-pyrrolidin-1-yl-ethoxy)-phenyl]-5,11-dihydro-chromeno[4,3-c]chromen-2-yl ester]				EC50 (MCF-7 cells; [5]): > 10 µM; IC50 (MCF-7 cells; [4]): 2.2 µM; EC50 (Ishikawa cells; Homo sapiens): > 10 µM; IC50 (Ishikawa cells; Homo sapiens): 0.63 µM
CC(C)(C)C(=O)Oc1ccc2c(c1)OC(C)(c1ccc(OCCN3CCCCCC3)cc1)C1=C2COc2cc(OC(=O)C(C)(C)C)ccc21 (centres unmarked) [Compound 33, 11-[4-(2-azepan-1-yl-ethoxy)-phenyl]-8-(2,2-dimethyl-propionyloxy)-11-methyl-5,11-dihydro-chromeno[4,3-c]chromen-2-yl ester]				EC50 (MCF-7 cells; [5]): > 10 µM; IC50 (MCF-7 cells; [4]): 4.8 µM; EC50 (Ishikawa cells; Homo sapiens): > 10 µM; IC50 (Ishikawa cells; Homo sapiens): 1 µM

Continued, in another order:

IC50 (MCF-7 cells; [2]) [µM]	IC50 (Ishikawa cells) [µM]	IC50 [1, 3] [µM]	Compound	also measured
> 10	> 10	0.0089	COC(=O)COc1ccc(C2Oc3cc(O)ccc3C3=C2c2ccc(O)cc2OCC3)cc1 (racemic) [Compound 190]	
0.245	0.078		Oc1ccc2c(c1)OC(c1ccc(OCCN3CCCCC3)cc1)C1=C2CCCOc2cc(O)ccc21 (single isomer, unassigned) [Compound 126]	
2.94	0.85		CN(C)CCOc1ccc(C2Oc3ccccc3C3=C2c2ccc(O)cc2OCC3)cc1 (single isomer, unassigned) [Compound 150]	
2.76	0.605		CN(C)CCOc1ccc(C2Oc3ccccc3C3=C2c2ccc(O)cc2OCC3)cc1 (single isomer, unassigned) [Compound 151]	
	0.041		Oc1ccc2c(c1)OC(c1ccc(OCCN3CCCCCC3)cc1)C1=C2CCOc2cc(O)ccc21 (single isomer, unassigned) [Compound 166]	
		0.024	COc1ccc2c(c1)O[C@@H](c1ccc(OCCN3CCCCC3)cc1)C1=C2COc2cc(O)ccc21 (single isomer, unassigned) [Compound 176, 8-Methoxy-5S-[4-(2-piperidin-1-yl-ethoxy)-phenyl]-5,11-dihydro-chromeno[4,3-c]chromen-2-ol]	
1.87	0.009		CC(C)(C)C(=O)Oc1ccc2c(c1)OC(c1ccc(OCCN3CCCCC3)cc1)C1=C2CCOc2cc(OC(=O)C(C)(C)C)ccc21 (single isomer, unassigned) [Compound 179]	
		0.69	COC1Oc2cc(OC(=O)C(C)(C)C)ccc2C2=C1c1ccc(OC(=O)C(C)(C)C)cc1OC2c1ccc(OCCN2CCCCC2)cc1 (centres unmarked) [Compound 27]	
